Experimental data taken from ChEMBL document CHEMBL1201862, “PubChem BioAssay data set” (2004).
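Each compound was tested at five concentrations against cells in 96-well plates for 48 hours. Abbreviation: GI50, concentration required for 50% inhibition of growth.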 Active and inactive are the calls of the source. Cut-off read from the data, not from the text of the source: active = GI50 up to about 1.1 µM and inactive = higher.

Experiments:
Assay in all cases: NCI tumour cell line growth inhibition, 48 h
COLO 205 = tested on: COLO 205
HOP-92 = tested on: HOP-92
U-251 = tested on: U-251
UACC-62 = tested on: UACC-62
KM12 = tested on: KM12
Hs-578T = tested on: Hs-578T
RPMI-8226 = tested on: RPMI-8226
SF-268 = tested on: SF-268
Malme-3M = tested on: Malme-3M
OVCAR-3 = tested on: OVCAR-3
786-0 = tested on: 786-0
CCRF-CEM = tested on: CCRF-CEM
NCI-H522 = tested on: NCI-H522
MOLT-4 = tested on: MOLT-4
SW-620 = tested on: SW-620
ACHN = tested on: ACHN
HL-60 = tested on: HL-60
SNB-75 = tested on: SNB-75
RXF 393 = tested on: RXF 393

Measured: GI50

O=c1oc2c/c(=C\c3ccc([N+](=O)[O-])cc3)c(=O)c3cccc1c3-2
inactive: COLO 205 > 100 µM | HOP-92 52 µM | U-251 28.6 µM | UACC-62 > 100 µM | KM12 83.6 µM | Hs-578T > 100 µM | RPMI-8226 > 100 µM | SF-268 39.8 µM | Malme-3M > 100 µM | OVCAR-3 48.5 µM | 786-0 > 100 µM | CCRF-CEM 36.8 µM | NCI-H522 28.1 µM | MOLT-4 > 100 µM | SW-620 > 100 µM | ACHN > 100 µM | HL-60 > 100 µM | SNB-75 22 µM

COc1ccc(N2C=Nn3c(nc4sc(C)c(C)c4c3=O)C2)cc1
inactive: COLO 205 > 100 µM | HOP-92 > 100 µM | U-251 > 100 µM | UACC-62 > 100 µM | KM12 > 100 µM | Hs-578T > 100 µM | RPMI-8226 > 100 µM | SF-268 > 100 µM | RXF 393 53.3 µM | Malme-3M > 100 µM | 786-0 38.3 µM | CCRF-CEM > 100 µM | NCI-H522 > 100 µM | MOLT-4 > 100 µM | SW-620 > 100 µM | ACHN > 100 µM | SNB-75 > 100 µM

CC(C)=C1C(=O)C[C@]2(C)C[C@H]3/C(=C(/C)CCC12)CC[C@@]3(C)O (some centres undefined)
inactive: COLO 205 45 µM | HOP-92 > 50 µM | U-251 > 50 µM | UACC-62 > 50 µM | KM12 18.2 µM | Hs-578T > 50 µM | RPMI-8226 > 50 µM | SF-268 > 50 µM | RXF 393 40.9 µM | OVCAR-3 37.7 µM | 786-0 > 50 µM | CCRF-CEM 20.3 µM | NCI-H522 29 µM | MOLT-4 14.9 µM | SW-620 > 50 µM | ACHN > 50 µM | HL-60 11.3 µM | SNB-75 19.1 µM

O/N=C1/COC(C(F)(F)F)(C(F)(F)F)C1
inactive: COLO 205 > 100 µM | HOP-92 > 100 µM | U-251 > 100 µM | UACC-62 > 100 µM | KM12 > 100 µM | Hs-578T > 100 µM | RPMI-8226 > 100 µM | SF-268 > 100 µM | RXF 393 > 100 µM | Malme-3M > 100 µM | OVCAR-3 > 100 µM | 786-0 > 100 µM | NCI-H522 > 100 µM | MOLT-4 > 100 µM | SW-620 > 100 µM | ACHN > 100 µM | SNB-75 > 100 µM

CC1(C)[C@@H]2CC[C@]1(C)[C@H](OC(=O)CSC#N)C2
inactive: COLO 205 > 100 µM | HOP-92 > 100 µM | U-251 > 100 µM | UACC-62 > 100 µM | KM12 > 100 µM | Hs-578T > 100 µM | SF-268 > 100 µM | RXF 393 > 100 µM | Malme-3M > 100 µM | OVCAR-3 30.8 µM | 786-0 18.3 µM | NCI-H522 43.9 µM | SW-620 17.9 µM | ACHN > 100 µM | SNB-75 > 100 µM

COc1ccc(N2C(=O)C(C#N)=C(SC)C(C#N)C2=O)cc1 (centres undefined)
inactive: COLO 205 > 100 µM | HOP-92 46.6 µM | U-251 > 100 µM | UACC-62 > 100 µM | KM12 > 100 µM | Hs-578T 22.8 µM | SF-268 > 100 µM | RXF 393 > 100 µM | Malme-3M > 100 µM | 786-0 > 100 µM | CCRF-CEM > 100 µM | NCI-H522 > 100 µM | MOLT-4 > 100 µM | SW-620 > 100 µM | ACHN > 100 µM | SNB-75 47.1 µM

Cn1c(=O)c2c(ncn2CCSS(=O)(=O)O)n(C)c1=O
inactive: COLO 205 > 100 µM | HOP-92 > 100 µM | U-251 45.8 µM | UACC-62 53.2 µM | KM12 > 100 µM | Hs-578T 74.5 µM | RPMI-8226 > 100 µM | SF-268 > 100 µM | RXF 393 79.1 µM | Malme-3M > 100 µM | OVCAR-3 > 100 µM | 786-0 > 100 µM | NCI-H522 > 100 µM | SW-620 > 100 µM | ACHN > 100 µM | SNB-75 38.5 µM

C=C(CC[C@@H](C(=O)O)[C@H]1[C@H](O)C[C@@]2(C)C3=CC[C@@H](C(=C)C)[C@](C)(CCC(=O)O)C3=CC[C@]12C)C(C)C [PORICOIC ACID A]
inactive: COLO 205 23.1 µM | HOP-92 16.6 µM | U-251 18 µM | UACC-62 15.3 µM | KM12 18.3 µM | Hs-578T 22.6 µM | RXF 393 17.2 µM | Malme-3M 22.5 µM | OVCAR-3 19.1 µM | 786-0 16.6 µM | CCRF-CEM 29.6 µM | NCI-H522 20.4 µM | MOLT-4 22.1 µM | SW-620 22.2 µM | ACHN 17.6 µM | HL-60 15.9 µM | SNB-75 20.4 µM
